ChEMBL document CHEMBL6115030, “Systematic All-Hydrocarbon Stapling Analysis for Cecropin A Generates a Potent and Stable Antimicrobial Peptide” (J Med Chem, 2025)
Values after ≈ are worked out from the molar mass of the structure shown. Active and inactive are the calls of the source. The rule behind the calls is not given here. Bridge positions count the residues as written; N and C are the ends. Square brackets hold non-standard residues; d marks the D form. Peptide text beside a SMILES is read from it. S5 = C=CCCC[C@](C)(N)C(=O)O

Columns and labels:
Staphylococcus aureus = experiment: Antibacterial activity against Staphylococcus aureus ATCC 25923 assessed as inhibition of bacterial growth measured after 24 hrs by broth microdilution method; type: functional
Klebsiella pneumoniae [1] = experiment: Antibacterial activity against Klebsiella pneumoniae ATCC 13883 assessed as inhibition of bacterial growth measured after 24 hrs by broth microdilution method; type: functional
Pseudomonas aeruginosa [2] = experiment: Antibacterial activity against Pseudomonas aeruginosa PAO1 assessed as inhibition of bacterial growth measured after 24 hrs by broth microdilution method; type: functional
[3] = Hemolytic activity in human RBC assessed as hemolysis incubated for 1 hr by microplate reader; type: toxicity, cell-based, Erythrocyte; details: erythrocyte, 1 h
Acinetobacter baumannii = experiment: Antibacterial activity against Pandrug-resistant Acinetobacter baumannii assessed as inhibition of bacterial growth measured after 24 hrs by broth microdilution method; type: functional
Klebsiella pneumoniae [4] = experiment: Antibacterial activity against Carbapenem-resistant Klebsiella pneumoniae assessed as inhibition of bacterial growth measured after 24 hrs by broth microdilution method; type: functional
Pseudomonas aeruginosa [5] = experiment: Antibacterial activity against Pandrug-resistant Pseudomonas aeruginosa assessed as inhibition of bacterial growth measured after 24 hrs by broth microdilution method; type: functional
[6] = Stability of the compound in human serum assessed as remaining peptide by RP-HPLC analysis; type: ADME, cell-free
NIH3T3 = experiment: Cytotoxicity against mouse NIH3T3 cells assessed as cell viability measured upto 50 uM incubated for 24 hrs by CCK-8 assay; type: toxicity, cell-based; details: nih3t3, 24 h
Cell membrane [7] = experiment: Induction of Outer membrane damage in Escherichia coli assessed as pore formation and surface rupture at 5 uM measured after 24 hrs by SEM imaging analysis; type: subcellular
Escherichia coli [8] = experiment: Antibacterial activity against Escherichia coli assessed as reduction in CFU at 5 uM measured upto 60 mins by Time-killing assay; type: functional, organism-based
Cell membrane [9] = experiment: Induction of Inner membrane damage in Escherichia coli assessed as increase in […] ONPG intensity at 5 uM measured after 24 hrs incubation by microplate reader based inner membrane permeability assay; type: subcellular
Escherichia coli [10] = experiment: Induction of metabolism related pathways in Escherichia coli assessed as lipid metabolism pathway mRNAs at 12.5 uM measured after 2 hrs incubation by PCR analysis; type: functional, organism-based
Escherichia coli [11] = experiment: Induction of metabolism related pathways in Escherichia coli assessed as protein synthesis pathway mRNAs at 12.5 uM measured after 2 hrs incubation by PCR analysis; type: functional, organism-based
Escherichia coli [12] = experiment: Induction of multiple envelope stress pathway related pathways in Escherichia coli assessed as change in WcaB gene expression at 12.5 uM measured after 2 hrs incubation by PCR analysis; type: functional, organism-based
Escherichia coli [13] = experiment: Induction of multiple envelope stress pathway related pathways in Escherichia coli assessed as change in WcaC gene expression at 12.5 uM measured after 2 hrs incubation by PCR analysis; type: functional, organism-based
Escherichia coli [14] = experiment: Induction of multiple envelope stress pathway related pathways in Escherichia coli assessed as change in FimA gene expression at 12.5 uM measured after 2 hrs incubation by PCR analysis; type: functional, organism-based
Escherichia coli [15] = experiment: Induction of outer membrane synthesis related pathways in Escherichia coli assessed as change in OmpG gene expression at 12.5 uM measured after 2 hrs incubation by PCR analysis; type: functional, organism-based
Escherichia coli [16] = experiment: Induction of outer membrane synthesis related pathways in Escherichia coli assessed as change in OmpC gene expression at 12.5 uM measured after 2 hrs incubation by PCR analysis; type: functional, organism-based
Escherichia coli [17] = experiment: Induction of outer membrane synthesis related pathways in Escherichia coli assessed as change in OmpX gene expression at 12.5 uM measured after 2 hrs incubation by PCR analysis; type: functional, organism-based
Escherichia coli [18] = experiment: Induction of assembly related pathways in Escherichia coli assessed as change in BamA gene expression at 12.5 uM measured after 2 hrs incubation by PCR analysis; type: functional, organism-based
Escherichia coli [19] = experiment: Induction of assembly related pathways in Escherichia coli assessed as change in BamD gene expression at 12.5 uM measured after 2 hrs incubation by PCR analysis; type: functional, organism-based
Escherichia coli [20] = experiment: Induction of assembly related pathways in Escherichia coli assessed as change in BamB gene expression at 12.5 uM measured after 2 hrs incubation by PCR analysis; type: functional, organism-based
Escherichia coli [21] = experiment: Induction of LPS transport pathway related genes in Escherichia coli assessed as change in LptA gene expression at 12.5 uM measured after 2 hrs incubation by PCR analysis; type: functional, organism-based
Escherichia coli [22] = experiment: Induction of LPS transport pathway related genes in Escherichia coli assessed as change in LptB gene expression at 12.5 uM measured after 2 hrs incubation by PCR analysis; type: functional, organism-based
Escherichia coli [23] = experiment: Induction of LPS transport pathway related genes in Escherichia coli assessed as change in LptD gene expression at 12.5 uM measured after 2 hrs incubation by PCR analysis; type: functional, organism-based
Escherichia coli [24] = experiment: Induction of LPS transport pathway related genes in Escherichia coli assessed as change in LptE gene expression at 12.5 uM measured after 2 hrs incubation by PCR analysis; type: functional, organism-based
Escherichia coli [25] = experiment: Induction of LPS transport pathway related genes in Escherichia coli assessed as change in LptG gene expression at 12.5 uM measured after 2 hrs incubation by PCR analysis; type: functional, organism-based
[26] = Toxicity in C57BL/6 mouse assessed as increase in body weight at 25 mg/kg, ip measured during 14 days of study; type: organism-based; details: in vivo, 336 h, time 14 day
[27] = Toxicity in C57BL/6 female mouse assessed as apparent inflammatory exudates ([…], neutrophiles, macrophages) in lungs at 25 mg/kg, ip measured during 14 days of study by H and E staining based analysis; type: organism-based; details: in vivo, 336 h, time 14 day
[28] = Toxicity in C57BL/6 female mouse assessed as juxtaglomerular cells and interstitial fibrous tissues in kidney at 25 mg/kg, ip measured during 14 days of study by H and E staining based analysis; type: organism-based; details: in vivo, 336 h, time 14 day
[29] = Toxicity in C57BL/6 female mouse assessed as haemorrhagic point and blurred white pulp boundary in liver at 25 mg/kg, ip measured during 14 days of study by H and E staining based analysis; type: organism-based; details: in vivo, 336 h, time 14 day
Escherichia coli [30] = experiment: In vivo antibacterial activity against Escherichia coli intraperitoneally injected into C57BL/6 mouse peritonitis model assessed as mouse survival at 2.5 mg/kg, ip measured after 48 hrs relative to control; type: functional
Escherichia coli [31] = experiment: In vivo antibacterial activity against Escherichia coli intraperitoneally injected into C57BL/6 mouse peritonitis model assessed as reduction in bacterial load in spleen at 2.5 mg/kg, ip measured after 48 hrs relative to control; type: functional, organism-based
Escherichia coli [32] = experiment: In vivo antibacterial activity against Escherichia coli intraperitoneally injected into C57BL/6 mouse peritonitis model assessed as reduction in bacterial load in lung at 2.5 mg/kg, ip measured after 48 hrs relative to control; type: functional, organism-based
Escherichia coli [33] = experiment: In vivo antibacterial activity against Escherichia coli intraperitoneally injected into C57BL/6 mouse peritonitis model assessed as reduction in bacterial load in kidney at 2.5 mg/kg, ip measured after 48 hrs relative to control; type: functional, organism-based
Mus musculus [34] = experiment: In vivo anti-inflammatory efficacy in Escherichia coli intraperitoneally injected into C57BL/6 mouse peritonitis model assessed as reduction in IL-1beta level in blood at 2.5 mg/kg, ip measured after 48 hrs by ELISA; type: functional, organism-based
Mus musculus [35] = experiment: In vivo anti-inflammatory efficacy in Escherichia coli intraperitoneally injected into C57BL/6 mouse peritonitis model assessed as reduction in TNF-alpha level in blood at 2.5 mg/kg, ip measured after 48 hrs by ELISA; type: functional, organism-based

**Q.** Which results are given for `CC[C@H](C)[C@H](NC(=O)CNC(=O)[C@H](CC(=O)O)NC(=O)[C@H](CCCNC(=N)N)NC(=O)[C@@H](NC(=O)[C@H](CC(N)=O)NC(=O)[C@H](CCC(N)=O)NC(=O)CNC(=O)[C@@H](NC(=O)[C@H](CCCCN)NC(=O)[C@H](CCC(=O)O)NC(=O)[C@@H](NC(=O)[C@H](CCCCN)NC(=O)[C@H](CCCCN)NC(=O)[C@H](Cc1ccccc1)NC(=O)[C@H](CC(C)C)NC(=O)[C@H](CCCCN)NC(=O)[C@H](Cc1c[nH]c2ccccc12)NC(=O)[C@H](CCCCN)NC(C)=O)[C@@H](C)CC)C(C)C)[C@@H](C)CC)C(=O)N[C@H](C(=O)N[C@@H](CCCCN)C(=O)N[C@@H](C)C(=O)NCC(=O)N1CCC[C@H]1C(=O)N[C@@H](C)C(=O)N[C@H](C(=O)N[C@@H](C)C(=O)N[C@H](C(=O)N[C@H](C(=O)NCC(=O)N[C@@H](CCC(N)=O)C(=O)N[C@@H](C)C(=O)N[C@@]1(C)CCC/C=C\CCC[C@@](C)(C(N)=O)NC(=O)[C@H](C)NC(=O)[C@H]([C@@H](C)CC)NC(=O)[C@H](CCC(N)=O)NC1=O)C(C)C)C(C)C)C(C)C)[C@@H](C)CC` (Ac-KWKLFKKIEKVGQNIRDGIIKAGPAVAVVGQA[S5]QIA[S5]-NH2; staple (Z) 33-37)?
**A.** MIC (Staphylococcus aureus): 3.13 µM (≈ 12.7 µg/mL); MIC (Klebsiella pneumoniae [1]): 3.13 µM (≈ 12.7 µg/mL); MIC (Pseudomonas aeruginosa [2]): 6.25 µM (≈ 25.4 µg/mL); Activity [3]: Non-toxic; MIC (Acinetobacter baumannii): < 0.78 µM; MIC (Klebsiella pneumoniae [4]): 6.25 µM (≈ 25.4 µg/mL); MIC (Pseudomonas aeruginosa [5]): 12.5 µM (≈ 50.8 µg/mL); Stability [6]: > 50%; Activity (NIH3T3): Non-toxic; Activity (Cell membrane [7]): Active; Activity (Escherichia coli [8]): Active; Activity (Cell membrane [9]): Active; Activity (Escherichia coli [10]): Active; Activity (Escherichia coli [11]): Active; Activity (Escherichia coli [12]): Active; Activity (Escherichia coli [13]): Active; Activity (Escherichia coli [14]): Active; Activity (Escherichia coli [15]): Active; Activity (Escherichia coli [16]): Active; Activity (Escherichia coli [17]): Active; Activity (Escherichia coli [18]): Active; Activity (Escherichia coli [19]): Active; Activity (Escherichia coli [20]): Active; Activity (Escherichia coli [21]): Active; Activity (Escherichia coli [22]): Active; Activity (Escherichia coli [23]): Active; Activity (Escherichia coli [24]): Active; Activity (Escherichia coli [25]): Active; Activity [26]: Toxic; Activity [27]: Non-toxic; Activity [28]: Non-toxic; Activity [29]: Non-toxic; Activity (Escherichia coli [30]): 67%; Activity (Escherichia coli [31]): Active; Compound Showed Enhanced Bacterial Elimination Than Cec-0; Activity (Escherichia coli [32]): Active; Compound Showed Enhanced Bacterial Elimination Than Cec-0; Activity (Escherichia coli [33]): Active; Compound Showed Enhanced Bacterial Elimination Than Cec-0 And Compound Showed Comparable Bacterial Elimination To Polymyxin B; Activity (Mus musculus [34]): Active; Activity (Mus musculus [35]): Active
